The results in this text go back to patent US20150152088A1, “ALKYNYL HETEROAROMATIC COMPOUND AND USE THEREOF” (Nanjing Sanhome Pharmaceutical Co., Ltd., priority 2012, published 2015).

Test [1] relates to K562 chronic myelogenous leukemia cells. The experiment in a line: MTT assay, in vitro inhibitory activity on cells. In kind it is cell-based. Conditions: Homo sapiens, K562, 48 h, typically 48 hours. The source says: (§1) In this example, MTT assay was used to detect in vitro inhibitory activity of the compounds prepared according to the above examples on the cells. […] AP24534 was purchased from Shanghai Xinkuo Chemical Technology Co., Ltd., China.
(§2) Dimethyl sulfoxide (DMSO) is capable of dissolving formazan in cells, and absorbance value can be measured at a wavelength of 490 nm by an enzyme-linked immunometric meter, which reflects the number of living cells. Within a certain range of the number of cells, the amount of MTT crystals formed is proportional to the number of living cells.
(§3) 1. […] 2. Culturing in a 37° C., 5% CO2 incubator and keeping the cells adhering to the wall of the well. 3. […] 4. Carefully removing the supernatant, gently washing with PBS and discarding the supernatant again. 5. […] 6. Terminating culturing and carefully discarding the medium in each well. 7. Adding 150 μl dimethyl sulfoxide into each well, shaking for 10 minutes at low speed in a shaker, to make crystals fully dissolved. 8. Measuring the absorbance of each well at 490 nm by an enzyme-linked immunometric meter. 9. Calculating IC50 values.
On the technique in general: Tetrazolium dyes change colour on reduction, which living cells bring about.

In test [2] the test system is MDA-MB-231 human breast cancer cells. Put plainly: MTT assay, in vitro inhibitory activity on cells. In kind it is cell-based. As to conditions: typically 48 hours.
From the text: as §1, §2, §3

The test system of test [3] is Ovcar-3 human ovarian cancer cells. Put plainly: MTT assay, in vitro inhibitory activity on cells. As to conditions: typically 48 hours. The format is cell-based.
From the text: as §1, §2, §3

The test system of test [4] is Saos-2 human osteosarcoma cells. Put plainly: MTT assay, in vitro inhibitory activity on cells. In kind it is cell-based. As to conditions: typically 48 hours.
From the text: as §1, §2, §3

The target in a further test is T1, Human ABL1 (T315I) (Homo sapiens, UniProt P00519, T315I).
T1 construct: purchased Millipore Corporation, USA #14-522
Put plainly: ABL1 (T315I) kinase activity, [γ-33P] ATP / Abltide radiometric assay. The format is biochemical. Conditions: ATP 1.0 μM, 120 minutes, room temperature. Here is the method: Kinase activity was determined according to the manufacturer's instructions. Peptide substrate is Abltide ([…]), purchased from Millipore Corporation, USA. Ion exchange chromatography paper P81 was purchased from Whatman Company, UK. [γ-33P] ATP was purchased from Perkin Elmer Company.
[γ-33P] ATP was added at room temperature, with final concentration of 1.0 μM, and the reaction was performed for 120 minutes. 20 μl aliquots were transferred onto the ion exchange chromatography paper P81. The paper was thoroughly washed with a 0.75% phosphoric acid solution three times, and then washed with acetone once. Finally, γ-33P radioactivity was measured.

Test [5] deals with MEG-01 human megakaryocyte leukemia cells. Put plainly: CellTiter-Glo cell viability assay on Bcr-Abl-positive cells. The format is cell-based. Conditions: 72 hours. The procedure:
Each compound was dissolved in DMSO to 10 mM, diluted to 50 μM with complete medium, and then diluted to 10 μM with 0.1% DMSO in complete medium. The resulting solution was 10-fold serially diluted and formulated into 10 concentrations.
MEG-01 human megakaryocyte leukemia cells and KU812 human peripheral blood basophilic leukocytes, purchased from ATCC Company, USA.
6) Calculating cell viability (Cell Viability)=(RLUsample/RLUnegative)×100%, wherein RLUsample was RLU (Relative Light Units) value of the well added with the compound and RLUnegative was RLU value of the well without the compound (that is, cell control, which was treated with the same concentration of DMSO). Data were processed by using a four-parameter logistic fitting module in Graphpad Prism 4.0 software to calculate IC50.
On the technique in general: In ATP-based viability assays light output follows the ATP content of the culture.

Test [6] deals with KU812 human peripheral blood basophilic leukocytes. The description is as above. As to conditions: KU812, 72 h, read-out: IC50 KU812.

Turning to `Cc1ccc(C(=O)Nc2ccc(CN3CCN(C)CC3)c(C(F)(F)F)c2)cc1C#Cc1ccc2cncnc2c1` [Example 3, 3-((quinazolin-7-yl)ethynyl)4-methyl-N-[4-((4-methylpiperazin-1-yl)methyl)-3-trifluoromethylphenyl]benzamide], the IC50 (as a rule, the concentration at which inhibition is half-maximal) was found to be 1340 nM in test [1]; 2450 nM in test [2]; 4470 nM in test [3]; 1070 nM in test [4]; 4.51 nM against Human ABL1 (T315I).

As for `Cc1ccc(C(=O)Nc2ccc(CN3CCN(C)CC3)c(C(F)(F)F)c2)cc1C#Cc1ccc2c(=O)[nH]cnc2c1` [Example 9, 3-((4-oxo-3,4-dihydroquinazolin-7-yl)ethynyl)-4-methyl-N-[4-((4-methylpiperazin-1-yl)methyl)-3-trifluoromethylphenyl]benzamide], the IC50 amounted to 5340 nM in test [1], 5.8 nM against Human ABL1 (T315I), 1.49 nM in test [5] and 0.518 nM in test [6].

Take `Cc1ccc(C(=O)Nc2ccc(CN3CCN(C)CC3)c(C(F)(F)F)c2)cc1C#Cc1cccc2ncncc12` [Example 4, 3-((quinazolin-5-yl)ethynyl)-4-methyl-N-[4-((4-methylpiperazin-1-yl)methyl)-3-trifluoromethylphenyl]benzamide]: the IC50 in test [1] is 2440 nM; in test [2], 1300 nM; in test [3] it was 6230 nM; in test [4] it was 1590 nM; on Human ABL1 (T315I) it was 2.3 nM.

As to `Cc1ccc(C(=O)Nc2ccc(CN3CCN(C)CC3)c(C(F)(F)F)c2)cc1C#Cc1ccc2c(N)ncnc2c1` [Example 13, 3-((4-aminoquinazolin-7-yl)ethynyl)-4-methyl-N-[4-((4-methylpiperazin-1-yl)methyl)-3-trifluoromethylphenyl]benzamide], the IC50 in test [1] stood at 4120 nM; against Human ABL1 (T315I) it was 9.5 nM; in test [5], 3.56 nM; in test [6], 1.17 nM.

For `Cc1ccc(C(=O)Nc2ccc(CN3CCN(C)CC3)c(C(F)(F)F)c2)cc1C#Cc1ccc2cnc(N)nc2c1` [Example 11, 3-((2-aminoquinazolin-7-yl)ethynyl)-4-methyl-N-[4-((4-methylpiperazin-1-yl)methyl)-3-trifluoromethylphenyl]benzamide], the IC50 amounted to 900 nM in test [1], 2790 nM in test [2], 4720 nM in test [3] and 1790 nM in test [4].

As for `Cc1ccc(NC(=O)Nc2ccc(CN3CCN(C)CC3)c(C(F)(F)F)c2)cc1C#Cc1cccc2[nH]nc(N)c12` [Example 32, N-[3-((3-amino-1H-indazol-4-yl)ethynyl)-4-methyl]phenyl-N′-[4-((4-methylpiperazin-1-yl)methyl)-3-trifluoromethylphenyl]urea], the IC50 in test [1] turned out to be 660 nM; in test [2], 2110 nM; in test [3], 6970 nM; in test [4], 2130 nM.
